molecular target: T1, human ADRA2B receptor (Homo sapiens, UniProt P18089); test: GTPγS agonist assay, ADRA2B receptor; type: biochemical; conditions: read-out: GTPase - Human Alpha2B EC50
T1 construct: expressed in transfected cells
T1 sequence (P18089 1-450): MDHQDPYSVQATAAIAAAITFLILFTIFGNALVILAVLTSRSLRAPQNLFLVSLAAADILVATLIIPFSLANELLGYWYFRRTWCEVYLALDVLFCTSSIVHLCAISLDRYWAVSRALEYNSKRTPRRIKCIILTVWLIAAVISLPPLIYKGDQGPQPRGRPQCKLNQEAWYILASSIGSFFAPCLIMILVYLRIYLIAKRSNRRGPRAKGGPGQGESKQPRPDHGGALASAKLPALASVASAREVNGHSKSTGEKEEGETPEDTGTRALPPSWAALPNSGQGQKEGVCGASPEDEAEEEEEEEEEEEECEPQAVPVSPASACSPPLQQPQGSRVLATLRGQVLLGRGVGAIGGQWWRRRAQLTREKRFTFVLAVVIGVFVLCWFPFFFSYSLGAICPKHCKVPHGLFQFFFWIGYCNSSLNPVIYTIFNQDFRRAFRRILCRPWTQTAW
Procedure: GTP ? S Agonist Assays (ADRA2A, ADRA2B, and ADRA2C Receptors)
Membranes were prepared for GTP ? S binding assays from CHO-K1 cells stably expressing human ADRA2A, ADRA2B, or ADRA2C receptor. Briefly, cells were grown in 5-layer cell culture flasks. Cells were washed with 50 mL of PBS and then dissociated with 0.05% trypsin. Dissociated cells were then collected by centrifugation at 650×g for 8 min at 4° C. Pellets were washed again in PBS by centrifugation and resuspended in 30 mL of 20 mM HEPES, 10 mM EDTA, pH 7.4. After sitting on ice for 30 min, membranes were collected by centrifugation at 50000×g for 15 min at 4° C., resuspended in 30 mL of 20 mM HEPES, 0.1 mM EDTA, pH 7.4 and collected again by centrifugation. Pellets were then washed twice by centrifugation in 30 mL of 20 mM HEPES, pH 7.4, and stored at −80° C. until the day of the assay. On the day of the assay, pellets were thawed on ice and resuspended in 1 mL of 20 mM HEPES, pH 7.4, 10 mM MgCl2, 100 mM NaCl using dounce homogenization. Membrane protein concentration was determined by BCA protein assay (Promega, Madison, WI) according to Promega guidelines.
On the day of the assay, serial dilutions of test compounds were brought up in assay buffer (20 mM HEPES, 10 mM MgCl2, 200 mM NaCl) at 10× final assay concentration. 50 μL/well of membrane homogenates (containing 5 μg of membrane protein for ADRA2A, ADRA2B, or 7.5 μg for ADRA2C) were prepared in assay buffer supplemented with GDP at 2× final assay concentration (5 μM GDP) and dispensed into 96 well polypropylene, U-bottom Greiner plates. Then, 10 μL of compounds were added to assay plates and incubated for 10 min at room temperature. […] The binding reaction was incubated for 1 h at 37° C. Membranes in assay reactions were then transferred to GF/C filter plates (UniFilter, Perkin Elmer) and washed three times using a FilterMate Harvester (Perkin Elmer) with cold assay buffer containing no GDP. Filter plates were then dried at 40° C. overnight followed by the addition of 30 μL/well of Beta Plate Scintillation liquid. Plates were top and bottom sealed before being read on TopCount scintillation counter (Perkin Elmer, Waltham, MA).

SMILES	EC50
Cc1cccc(C(Cc2cccc(=O)[nH]2)c2cnc[nH]2)c1C (stereo not shown) [Compound 87, 6-[2-(2,3-dimethylphenyl)-2-(1H-imidazol-4-yl)ethyl] pyridin-2-ol]	> 0.5 µM
Cc1cccc(C(Cc2cncs2)c2c[nH]cn2)c1C (stereo not shown) [Compound 116, 5-[2-(4-imidazolyl)-2-(2,3-xylyl)ethyl]-1,3-thiazole]	0.01 to 0.05 µM
FC(F)(F)c1ccc(Cl)c(C(Cc2cccnn2)c2c[nH]cn2)c1 (stereo not shown) [Compound 361, 3-{2-[2-chloro-5-(trifluoromethyl)phenyl]-2-(4-imidazolyl)ethyl}pyridazine]	> 0.5 µM
Cc1cccc([C@@H](Cc2ccon2)c2c[nH]cn2)c1C [Compound 100, 3-[(R)-2-(4-imidazolyl)-2-(2,3-xylyl)ethyl] isoxazole]	0.01 to 0.05 µM
COc1nccc(CC(c2c[nH]cn2)c2cccc3cn[nH]c23)n1 (stereo not shown) [Compound 172, 7-[1-(4-imidazolyl)-2-(2-methoxy-4-pyrimidinyl)ethyl]-1H-indazole]	> 0.5 µM
C#Cc1cccc(C(Cc2cccnn2)c2c[nH]cn2)c1 (stereo not shown) [Compound 229, 3-[2-(m-ethynylphenyl)-2-(4-imidazolyl)ethyl] pyridazine]	> 0.5 µM
Cc1cccc(CC(c2cnc[nH]2)c2cccc(C)c2C)n1 (stereo not shown) [Compound 96, 2-[2-(2,3-dimethylphenyl)-2-(1H-imidazol-4-yl)ethyl]-6-methyl-pyridine]	0.01 to 0.05 µM
COc1c(C)cccc1C(Cc1ccnc(C)n1)c1c[nH]cn1 (stereo not shown) [Compound 148, 4-[2-(4-imidazolyl)-2-(2-methoxy-3-tolyl)ethyl]-2-methylpyrimidine]	0.05 to 0.5 µM
FC(F)(F)c1ccccc1C(Cc1cccnn1)c1c[nH]cn1 (stereo not shown) [Compound 166, 3-{2-(4-imidazolyl)-2-[o-(trifluoromethyl)phenyl]ethyl}pyridazine]	> 0.5 µM
Cc1cccc([C@@H](Cc2cscn2)c2c[nH]cn2)c1C [Compound 119, 4-[(R)-2-(4-imidazolyl)-2-(2,3-xylyl)ethyl]-1,3-thiazole]	< 0.01 µM
Cc1cccc([C@H](Cc2ccnc(C(F)(F)F)n2)c2cnc[nH]2)c1C [Compound 72, 4-[(2S)-2-(2,3-dimethylphenyl)-2-(1H-imidazol-4-yl)ethyl]-2-(trifluoromethyl) pyrimidine]	< 0.01 µM
Cc1nccc(C[C@H](c2cnc[nH]2)c2cccc(C)c2C)n1 [Compound 70, 4-[(2S)-2-(2,3-dimethylphenyl)-2-(1H-imidazol-4-yl)ethyl]-2-methyl-pyrimidine]	< 0.01 µM
Cc1c(Cl)cccc1[C@H](Cc1cccnc1)c1cnc[nH]1 [Compound 62, 3-[(2S)-2-(3-chloro-2-methylphenyl)-2-(1H-imidazol-4-yl)ethyl]pyridine]	> 0.5 µM
Cc1cnc(C[C@@H](c2cnc[nH]2)c2cccc(C)c2C)nc1 [Compound 75, 2-[(2R)-2-(2,3-dimethylphenyl)-2-(1H-imidazol-4-yl)ethyl]-5-methylpyrimidine]	0.05 to 0.5 µM
Cc1cccc([C@@H](Cc2cccnn2)c2c[nH]cn2)c1F [Compound 137, 3-[(R)-2-(2-fluoro-3-tolyl)-2-(4-imidazolyl)ethyl] pyridazine]	0.05 to 0.5 µM
COc1cccc(C[C@@H](c2c[nH]cn2)c2cccc(Cl)c2OC)n1 [Compound 8, 2-[(2R)-2-(3-chloro-2-methoxyphenyl)-2-(1H-imidazol-4-yl)ethyl]-6-methoxypyridine]	> 0.5 µM
COc1ccccc1[C@@H](Cc1ccccn1)c1cnc[nH]1 [Compound 32, 2-[(2R)-2-(1H-imidazol-4-yl)-2-(2-methoxyphenyl)ethyl]pyridine]	> 0.5 µM
Cc1ccc(C(F)(F)F)cc1C(Cc1cccnn1)c1c[nH]cn1 (stereo not shown) [Compound 221, 3-{2-(4-imidazolyl)-2-[5-(trifluoromethyl)-2-tolyl]ethyl}pyridazine]	> 0.5 µM
Clc1cccc(C(Cc2cccnn2)c2c[nH]cn2)c1Cl (stereo not shown) [Compound 170, 3-[2-(2,3-dichlorophenyl)-2-(4-imidazolyl)ethyl] pyridazine]	0.05 to 0.5 µM
Cc1cccc([C@H](Cc2ccc(=O)[nH]n2)c2cnc[nH]2)c1C [Compound 76, 6-[(2S)-2-(2,3-dimethylphenyl)-2-(1H-imidazol-4-yl)ethyl]-2,3-dihydropyridazin-3-one]	> 0.5 µM
COc1cccc(C[C@@H](c2cnc[nH]2)c2cccc(C)c2OC)n1 [Compound 10, 2-[(2R)-2-(1H-imidazol-4-yl)-2-(2-methoxy-3-methylphenyl)ethyl]-6-methoxypyridine]	> 0.5 µM
Cc1cccc([C@H](Cc2cccnn2)c2c[nH]cn2)c1F [Compound 138, 3-[(S)-2-(2-fluoro-3-tolyl)-2-(4-imidazolyl)ethyl] pyridazine]	> 0.5 µM
Cc1cccc([C@@H](Cc2ccccn2)c2cnc[nH]2)c1C [Compound 52, 2-[(2R)-2-(2,3-dimethylphenyl)-2-(1H-imidazol-4-yl)ethyl] pyridine]	0.01 to 0.05 µM
Cc1ccnc(C[C@H](c2cnc[nH]2)c2cccc(C)c2C)n1 [Compound 78, 2-[(2S)-2-(2,3-dimethylphenyl)-2-(1H-imidazol-4-yl)ethyl]-4-methylpyrimidine]	> 0.5 µM

Now from value to compound:

EC50	SMILES
0.01 to 0.05 µM	COc1cccc(C[C@H](c2c[nH]cn2)c2cccc(Cl)c2OC)n1 [Compound 7, 2-[(2S)-2-(3-chloro-2-methoxyphenyl)-2-(1H-imidazol-4-yl)ethyl]-6-methoxypyridine]
0.01 to 0.05 µM	Cc1nnc(CC(c2c[nH]cn2)c2cccc(C)c2C)o1 (stereo not shown) [Compound 241, 2-[2-(4-imidazolyl)-2-(2,3-xylyl)ethyl]-5-methyl-1,3,4-oxadiazole]
0.01 to 0.05 µM	FC(F)(F)Oc1cccc([C@@H](Cc2ccccn2)c2cnc[nH]2)c1 [Compound 36, 2-[(2R)-2-(1H-imidazol-4-yl)-2-[3-(trifluoromethoxy)phenyl]ethyl] pyridine]
0.01 to 0.05 µM	Cc1cccc([C@H](Cc2ccnn2C)c2c[nH]cn2)c1C [Compound 131, 5-[(S)-2-(4-imidazolyl)-2-(2,3-xylyl)ethyl]-1-methyl-pyrazole]
0.01 to 0.05 µM	Cc1cccc(C(Cc2cnn(C(C)C)c2)c2c[nH]cn2)c1C (stereo not shown) [Compound 277, 4-[2-(4-imidazolyl)-2-(2,3-xylyl)ethyl]-1-isopropylpyrazole]
< 0.01 µM	c1ccc(C[C@H](c2cnc[nH]2)c2cccc3c2CCO3)nc1 [Compound 41, 2-[(2S)-2-(2,3-dihydro-1-benzofuran-4-yl)-2-(1H-imidazol-4-yl)ethyl]pyridine]
0.05 to 0.5 µM	COc1nccc(CC(c2c[nH]cn2)c2cccc3ncoc23)n1 (stereo not shown) [Compound 174, 7-[1-(4-imidazolyl)-2-(2-methoxy-4-pyrimidinyl)ethyl]-1,3-benzoxazole]
0.05 to 0.5 µM	COc1nccc(CC(c2c[nH]cn2)c2cccc(Cl)c2C#N)n1 (stereo not shown) [Compound 196, 6-chloro-2-[1-(4-imidazolyl)-2-(2-methoxy-4-pyrimidinyl)ethyl] benzonitrile]
< 0.01 µM	Cc1cccc(C(Cc2cc(C(F)(F)F)nn2C)c2c[nH]cn2)c1C (stereo not shown) [Compound 310, 5-[2-(4-imidazolyl)-2-(2,3-xylyl)ethyl]-1-methyl-3-(trifluoromethyl)pyrazole]
< 0.01 µM	COc1nccc(CC(c2c[nH]cn2)c2cccc(C)c2Cl)n1 (stereo not shown) [Compound 186, 4-[2-(2-chloro-3-tolyl)-2-(4-imidazolyl)ethyl]-2-methoxypyrimidine]
< 0.01 µM	Cc1cccc([C@H](Cc2cccnc2)c2cnc[nH]2)c1Cl [Compound 60, 3-[(2S)-2-(2-chloro-3-methylphenyl)-2-(1H-imidazol-4-yl)ethyl] pyridine]
< 0.01 µM	COc1cccc(C[C@H](c2c[nH]cn2)c2cccc(C)c2C)n1 [Compound 3, 2-[(2S)-2-(2,3-dimethylphenyl)-2-(1H-imidazol-4-yl)ethyl]-6-methoxypyridine]
0.01 to 0.05 µM	Cc1cccc([C@@H](Cc2ccccn2)c2cnc[nH]2)c1Cl [Compound 48, 2-[(2R)-2-(2-chloro-3-methylphenyl)-2-(1H-imidazol-4-yl)ethyl]pyridine]

Source: US20260042769A1, “TRIARYL AGONISTS OF ALPHA-2 ADRENERGIC RECEPTORS” (ALCEPTOR THERAPEUTICS, INC., priority 2023, published 2026)
